According to PubChem BioAssay AID1259407 (Chemical Carcinogenesis Research Information System (CCRIS), 2018):
Calls of active or inactive are those of the source. How the calls were made is not given here.

Tested on: CCRIS mutagenicity, Ames/micronucleus/aberration tests
Assay: CCRIS mutagenicity studies
[1] = Test System: AMES SALMONELLA TYPHIMURIUM, Strain/Indicator: TA98, Metabolic Activation: NONE, Method: STANDARD PLATE
[2] = Test System: AMES SALMONELLA TYPHIMURIUM, Strain/Indicator: TA98, Metabolic Activation: RAT, LIVER, S-9, AROCLOR 1254, Method: STANDARD PLATE
[3] = Test System: AMES SALMONELLA TYPHIMURIUM, Strain/Indicator: TA100, Metabolic Activation: NONE, Method: PREINCUBATION
[4] = Test System: AMES SALMONELLA TYPHIMURIUM, Strain/Indicator: TA100, Metabolic Activation: NONE, Method: STANDARD PLATE
[5] = Test System: AMES SALMONELLA TYPHIMURIUM, Strain/Indicator: TA100, Metabolic Activation: RAT, LIVER, S-9, AROCLOR 1254, Method: PREINCUBATION
[6] = Test System: AMES SALMONELLA TYPHIMURIUM, Strain/Indicator: TA100, Metabolic Activation: RAT, LIVER, S-9, AROCLOR 1254, Method: STANDARD PLATE
[7] = Test System: AMES SALMONELLA TYPHIMURIUM, Strain/Indicator: TA1535, Metabolic Activation: RAT, LIVER, S-9, AROCLOR 1254, Method: STANDARD PLATE
[8] = Test System: AMES SALMONELLA TYPHIMURIUM, Strain/Indicator: TA98, Metabolic Activation: NONE, Method: PREINCUBATION

SMILES: O=[N+]([O-])c1cc2c3ccccc3ccc2c2ccccc12
- mutagenic call (Test System: AMES SALMONELLA TYPHIMURIUM, Strain/Indicator: TA98, Metabolic Activation: HAMSTER LIVER S-9, 6-NITROCHRYSENE, Method: PREINCUBATION): active; positive
- mutagenic call (Test System: AMES SALMONELLA TYPHIMURIUM, Strain/Indicator: TA98, Metabolic Activation: HAMSTER LIVER S-9, Method: PREINCUBATION): active; positive
- mutagenic call [1]: active; positive
- mutagenic call (Test System: AMES SALMONELLA TYPHIMURIUM, Strain/Indicator: TA98, Metabolic Activation: RAT, LIVER, S-9, AROCLOR 1254, Method: PREINCUBATION): active; positive
- mutagenic call [2]: active; positive
- mutagenic call (Test System: AMES SALMONELLA TYPHIMURIUM, Strain/Indicator: TA98, Metabolic Activation: RAT, LIVER, S-9, Method: PREINCUBATION): active; positive
- mutagenic call (Test System: AMES SALMONELLA TYPHIMURIUM, Strain/Indicator: TA100, Metabolic Activation: HAMSTER LIVER S-9, 6-NITROCHRYSENE, Method: PREINCUBATION): active; positive
- mutagenic call (Test System: AMES SALMONELLA TYPHIMURIUM, Strain/Indicator: TA100, Metabolic Activation: HAMSTER LIVER S-9, Method: PREINCUBATION): active; positive
- mutagenic call [3]: active; positive
- mutagenic call [4]: active; positive
- mutagenic call [5]: active; positive
- mutagenic call [6]: active; positive
- mutagenic call (Test System: AMES SALMONELLA TYPHIMURIUM, Strain/Indicator: TA100, Metabolic Activation: RAT, LIVER, S-9, Method: PREINCUBATION): active; positive
- mutagenic call (Test System: AMES SALMONELLA TYPHIMURIUM, Strain/Indicator: TA102, Metabolic Activation: HAMSTER LIVER S-9, 6-NITROCHRYSENE, Method: PREINCUBATION): active; positive
- mutagenic call (Test System: AMES SALMONELLA TYPHIMURIUM, Strain/Indicator: TA102, Metabolic Activation: HAMSTER LIVER S-9, Method: PREINCUBATION): active; positive
- mutagenic call (Test System: AMES SALMONELLA TYPHIMURIUM, Strain/Indicator: TA102, Metabolic Activation: NONE, Method: PREINCUBATION): inactive; negative
- mutagenic call (Test System: CHINESE HAMSTER OVARY, Strain/Indicator: CHO-K1-BH4 (HGPRT)/6-THIOGUANINE, Metabolic Activation: NONE, Method: STANDARD PLATE): inactive; negative
- mutagenic call (Test System: CHINESE HAMSTER OVARY, Strain/Indicator: CHO-K1-BH4 (HGPRT)/6-THIOGUANINE, Metabolic Activation: RAT, LIVER, S-9, AROCLOR 1254, Method: STANDARD PLATE): active; positive
- mutagenic call (Test System: CHINESE HAMSTER OVARY, Strain/Indicator: CHO-UV5 (HGPRT)/6-THIOGUANINE, Metabolic Activation: NONE, Method: STANDARD PLATE): active; positive
- mutagenic call (Test System: CHINESE HAMSTER OVARY, Strain/Indicator: CHO-UV5 (HGPRT)/6-THIOGUANINE, Metabolic Activation: RAT, LIVER, S-9, AROCLOR 1254, Method: STANDARD PLATE): active; positive

SMILES: CNC(=O)Oc1cc2ccccc2c2ccccc12
- mutagenic call [2]: inactive; negative
- mutagenic call [7]: active; positive

SMILES: C/C=C/C=C/C=O
- mutagenic call (Test System: AMES SALMONELLA TYPHIMURIUM, Strain/Indicator: TA98, Metabolic Activation: HAMSTER LIVER S-9, AROCLOR 1254 (30%), Method: PREINCUBATION): inactive; negative
- mutagenic call (Test System: AMES SALMONELLA TYPHIMURIUM, Strain/Indicator: TA98, Metabolic Activation: HAMSTER, LIVER, S-9, AROCLOR 1254, Method: STANDARD PLATE): inactive; negative
- mutagenic call [8]: inactive; negative
- mutagenic call [1]: inactive; negative
- mutagenic call (Test System: AMES SALMONELLA TYPHIMURIUM, Strain/Indicator: TA98, Metabolic Activation: RAT LIVER S-9, AROCLOR 1254 (30%), Method: PREINCUBATION): inactive; negative
- mutagenic call [2]: inactive; negative
- mutagenic call (Test System: AMES SALMONELLA TYPHIMURIUM, Strain/Indicator: TA100, Metabolic Activation: HAMSTER LIVER S-9, AROCLOR 1254 (5%), Method: PREINCUBATION): active; positive
- mutagenic call (Test System: AMES SALMONELLA TYPHIMURIUM, Strain/Indicator: TA100, Metabolic Activation: HAMSTER LIVER S-9, AROCLOR 1254 (10%), Method: PREINCUBATION): active; positive
- mutagenic call (Test System: AMES SALMONELLA TYPHIMURIUM, Strain/Indicator: TA100, Metabolic Activation: HAMSTER, LIVER, S-9, AROCLOR 1254, Method: STANDARD PLATE): inactive; negative
- mutagenic call (Test System: AMES SALMONELLA TYPHIMURIUM, Strain/Indicator: TA100, Metabolic Activation: NONE, Method: PREINCUBATION (THREEFOLD CELL DENSITY)): active; positive
- mutagenic call [4]: inactive; negative
- mutagenic call (Test System: AMES SALMONELLA TYPHIMURIUM, Strain/Indicator: TA100, Metabolic Activation: RAT LIVER S-9, AROCLOR 1254 (5%), Method: PREINCUBATION): active; positive
- mutagenic call (Test System: AMES SALMONELLA TYPHIMURIUM, Strain/Indicator: TA100, Metabolic Activation: RAT LIVER S-9, AROCLOR 1254 (10%), Method: PREINCUBATION): active; positive
- mutagenic call [5]: active; positive
- mutagenic call (Test System: AMES SALMONELLA TYPHIMURIUM, Strain/Indicator: TA100, Metabolic Activation: RAT, LIVER, S-9, AROCLOR 1254, Method: PREINCUBATION (THREEFOLD CELL DENSITY)): active; positive
- mutagenic call [6]: inactive; negative
- mutagenic call (Test System: AMES SALMONELLA TYPHIMURIUM, Strain/Indicator: TA104, Metabolic Activation: NONE, Method: PREINCUBATION): active; positive
- mutagenic call (Test System: AMES SALMONELLA TYPHIMURIUM, Strain/Indicator: TA1535, Metabolic Activation: HAMSTER LIVER S-9, AROCLOR 1254 (30%), Method: PREINCUBATION): inactive; negative
- mutagenic call (Test System: AMES SALMONELLA TYPHIMURIUM, Strain/Indicator: TA1535, Metabolic Activation: HAMSTER, LIVER, S-9, AROCLOR 1254, Method: STANDARD PLATE): inactive; negative
- mutagenic call (Test System: AMES SALMONELLA TYPHIMURIUM, Strain/Indicator: TA1535, Metabolic Activation: NONE, Method: PREINCUBATION): inactive; negative
- mutagenic call (Test System: AMES SALMONELLA TYPHIMURIUM, Strain/Indicator: TA1535, Metabolic Activation: NONE, Method: STANDARD PLATE): inactive; negative
- mutagenic call (Test System: AMES SALMONELLA TYPHIMURIUM, Strain/Indicator: TA1535, Metabolic Activation: RAT LIVER S-9, AROCLOR 1254 (30%), Method: PREINCUBATION): inactive; negative
- mutagenic call [7]: inactive; negative
- mutagenic call (Test System: AMES SALMONELLA TYPHIMURIUM, Strain/Indicator: TA1537, Metabolic Activation: HAMSTER, LIVER, S-9, AROCLOR 1254, Method: STANDARD PLATE): inactive; negative
- mutagenic call (Test System: AMES SALMONELLA TYPHIMURIUM, Strain/Indicator: TA1537, Metabolic Activation: NONE, Method: STANDARD PLATE): inactive; negative
- mutagenic call (Test System: AMES SALMONELLA TYPHIMURIUM, Strain/Indicator: TA1537, Metabolic Activation: RAT, LIVER, S-9, AROCLOR 1254, Method: STANDARD PLATE): inactive; negative
- mutagenic call (Test System: AMES SALMONELLA TYPHIMURIUM, Strain/Indicator: TA1538, Metabolic Activation: HAMSTER, LIVER, S-9, AROCLOR 1254, Method: STANDARD PLATE): inactive; negative
- mutagenic call (Test System: AMES SALMONELLA TYPHIMURIUM, Strain/Indicator: TA1538, Metabolic Activation: NONE, Method: STANDARD PLATE): inactive; negative
- mutagenic call (Test System: AMES SALMONELLA TYPHIMURIUM, Strain/Indicator: TA1538, Metabolic Activation: RAT, LIVER, S-9, AROCLOR 1254, Method: STANDARD PLATE): inactive; negative
- mutagenic call (Test System: MOUSE LYMPHOMA, Strain/Indicator: L5178Y (TK+/TK-), Metabolic Activation: NONE, Method: SUSPENSION/PLATE): active; positive. reevaluation of results: positive
- mutagenic call (Test System: MOUSE LYMPHOMA, Strain/Indicator: L5178Y (TK+/TK-), Metabolic Activation: RAT, LIVER, S-9, AROCLOR 1254, Method: SUSPENSION/PLATE): inactive; negative. reevaluation of results: negative

SMILES: NNc1nncc2cnccc12
- mutagenic call [8]: active; positive
- mutagenic call (Test System: AMES SALMONELLA TYPHIMURIUM, Strain/Indicator: TA98, Metabolic Activation: RAT, LIVER, S-9, PCB, Method: PREINCUBATION): active; positive
- mutagenic call [3]: active; positive
- mutagenic call (Test System: AMES SALMONELLA TYPHIMURIUM, Strain/Indicator: TA100, Metabolic Activation: RAT, LIVER, S-9, PCB, Method: PREINCUBATION): active; positive

SMILES: O=C1CCC(=O)N1c1ccc(Cl)c(Cl)c1Cl
- mutagenic call [1]: inactive; negative
- mutagenic call [2]: inactive; negative
- mutagenic call [4]: inactive; negative
- mutagenic call [6]: inactive; negative
